According to ChEMBL document CHEMBL6134829, “Targeting cysteine protease B to discover antileishmanial drugs: Directions and advances” (Eur J Med Chem, 2025):
pIC50, pKi: −log10 of the molar value. ≈ marks a conversion by molar mass, not a printed value. *1 amine or outer side, *2 acyl side, *3 side chain or, on linkers, in order; H or OH if unused. Where a SMILES comes first, the peptide text is derived from it. [ ]: non-standard residue; d: D form. X1 = O=C1CC2C(=O)N(CCN[*:1])C(=O)C2C(c2ccc(C(=O)[*:2])cc2)C1; X2 = O=C1CC2C(=O)N(CCN[*:1])C(=O)C2C(C(=O)[*:2])C1; Cha = N[C@@H](CC1CCCCC1)C(=O)O

Key:
[1] = Inhibition of Leishmania mexicana CPB2.8
[2] = Binding affinity to Leishmania mexicana CPB2.8 assessed as inhibition constant
Leishmania amazonensis = assay: Antileishmanial activity against Leishmania amazonensis promastigotes assessed as inhibition of parasite growth; type: functional, organism-based
[3] = Inhibition of Leishmania donovani cysteine protease
Leishmania donovani = assay: Antileishmanial activity against Leishmania donovani MHOM/IN/1983/AG83 axenic amastigotes assessed as inhibition of growth at 10 uM relative to control; type: functional; parameters: scale not given: the % may be the effect or the level left
Leishmania infantum = assay: Antileishmanial activity against Leishmania infantum promastigote assessed as reduction in parasite growth after 72 hrs by MTT assay relative to control; type: functional; parameters: scale not given: the % may be the effect or the level left
Leishmania major = assay: Antileishmanial activity against Leishmania major promastigotes MHOM/IL/81/FE/BN; type: functional, organism-based

Row | Structure (SMILES) | pIC50 [1] | further results
1 | COC(=O)c1ccc(NC(=O)CSc2nc3ccc(Cl)cc3n2Cc2cc(C)cc(C)c2)c(Cl)c1 | 5.69 | pKi [2]: 6.16
2 | CC(C)C[C@H](NC(=O)OC(C)(C)C)C(=O)N1CCC[C@@H]1C(=O)N1[C@@H](C(=O)OCc2ccccc2)[C@@H]1C(=O)OCc1ccccc1 | 5.42 | –
3 | COc1ccc(-c2oc3ccccc3c(=O)c2O)cc1 | 5.33 | pKi [2]: 5.11
4 | O=C1c2c(O)cc(O)cc2O[C@@H](c2ccc(O)cc2)[C@@H]1c1c(O)cc(O)c2c(=O)cc(-c3ccc(O)c(O)c3)oc12 | 5.28 | IC50 (Leishmania amazonensis): 95 µg/mL (≈ 171 µM)
5 | Oc1cccc(/C=N\c2cccc3c(/N=C/c4cccc(O)c4O)cccc23)c1O | – | pIC50 [3]: 3.95
6 | NC(=S)N/N=C/c1c(-c2ccccc2)[nH]c2ccccc12 | 7.22 | –
7 | COc1ccc2nc3cc(Cl)ccc3c(-n3c(=S)[nH][nH]c3=S)c2c1 | 5.94 | IC50 (Leishmania amazonensis): 6.57 µg/mL (≈ 17.5 µM)
8 | O=C(N[C@@H](CCc1ccccc1)C(=O)c1cc(-c2ccccc2)on1)[C@H](Cc1ccccc1)NC(=O)N1CCOCC1 | 6.72 | –
9 | CCOc1cc(/C=C2\SC(=O)NC2=O)ccc1O | 5.85 | Activity (Leishmania donovani): 100%
10 | O=C(N[C@H](/C=C/S(=O)(=O)c1ccccc1)CCc1ccccc1)[C@H](Cc1ccccc1)NC(=O)N1CCOCC1 | 7.57 | –
11 | NC(=O)N/N=c1\oc2ccccc2cc1-c1nc2ccccc2[nH]1 | 8.00 | –
12 | CC(C)(F)C[C@H](N[C@@H](c1ccc(-c2ccc(S(C)(=O)=O)cc2)cc1)C(F)(F)F)C(=O)NC1(C#N)CC1 [ODANACATIB] | – | Activity (Leishmania infantum): 90%
13 | COC(=O)c1ccc(NC(=O)CSc2nc3ccccc3n2S(=O)(=O)c2cc(C)cc(C)c2)cc1 | 6.27 | pKi [2]: 6.74
14 | CC(C)C[C@H](NC(=O)OC(C)(C)C)C(=O)N1CCC[C@@H]1C(=O)N1[C@H](C(=O)OCc2ccccc2)[C@H]1C(=O)OCc1ccccc1 | – | pIC50 (Leishmania major): 4.40
15 | O=C1CC(c2ccc(O)c(-c3c(O)cc4c(c3O)C(=O)CC(c3ccc(O)cc3)O4)c2)Oc2cc(O)cc(O)c21 (stereo unspecified) | 5.66 | –
16 | CC(C)C[C@H](NC(=O)C1CC(=O)CC2C(=O)N(CCNC(=O)[C@H](Cc3ccccc3)NC(=O)[C@@H](N)Cc3c[nH]c4ccccc34)C(=O)C12)C(=O)N[C@@H](Cc1ccc(O)cc1)C(=O)N[C@@H](Cc1ccc(O)cc1)C(N)=O (stereo partly specified) (H-WF[X2]LYY-NH2) | 6.30 | –
17 | CN(C)c1ccc(/C=C/C(=O)c2cc(Cl)ccc2O)cc1 | 5.40 | pKi [2]: 5.26
18 | Cc1ccc(C(=O)[C@@]23C(=O)OC(=O)[C@]2(C)N(C)[C@]2(c4ccccc4)Sc4ccccc4[C@H]32)cc1 | 5.43 | pKi [2]: 5.87
19 | CC(C)[C@H](NC(=O)c1ccc(C2CC(=O)CC3C(=O)N(CCNC(=O)[C@H](CC(=O)O)NC(=O)[C@@H](N)Cc4c[nH]c5ccccc45)C(=O)C32)cc1)C(=O)N[C@@H](CO)C(=O)N[C@@H](CCCCN)C(N)=O (stereo partly specified) (H-WD[X1]VSK-NH2) | 5.77 | –

Row | Structure (SMILES) | pIC50 [1] | further results
20 | O=c1c(O)c(-c2ccc3c(c2)OCO3)oc2ccccc12 | 5.28 | pKi [2]: 5.15
21 | O=C(O)c1ccccc1N/N=C/c1ccc(/C=N/Nc2ccccc2C(=O)O)cc1 | – | pIC50 [3]: 4.14
22 | O=C(N[C@@H](Cc1ccccc1)C(=O)c1noc(-c2ccccc2)n1)[C@H](Cc1ccccc1)NC(=O)N1CCOCC1 | 7.30 | –
23 | CC(C)(C)OC(=O)N[C@@H](Cc1cccc(Cl)c1)C(=O)NCC#N | – | Activity (Leishmania infantum): 35%
24 | O=C1NC(=O)/C(=C/c2ccc([N+](=O)[O-])cc2)S1 | 6.01 | Activity (Leishmania donovani): 93.98%
25 | Oc1cc(O)cc(/C=N/c2ccc(/N=C/c3ccc(O)cc3O)c(Cl)c2)c1 | – | pIC50 [3]: 4.19
26 | COC(=O)c1ccc(NC(=O)CSc2nc3ccc(Cl)cc3n2S(=O)(=O)c2cc(C)cc(C)c2)c(Cl)c1 | 6.35 | pKi [2]: 6.82
27 | CC(C)=CCOc1ccc(C(=O)c2ccc(O)cc2)c(O)c1 | 5.54 | pKi [2]: 5.37
28 | COc1ccc(-c2ccc(/C=N/NC(N)=S)o2)cc1 | 7.15 | –
29 | O=C(CN1C(=O)/C(=N\NC(=O)c2ccncc2)c2ccccc21)Nc1ccccc1 | – | pIC50 [3]: 4.20
30 | CC(C)[C@H](NC(=O)c1ccc(C2CC(=O)CC3C(=O)N(CCNC(=O)[C@H](Cc4c[nH]c5ccccc45)NC(=O)[C@@H](N)CC4CCCCC4)C(=O)C32)cc1)C(=O)N[C@H](C(=O)N[C@@H](Cc1ccccc1)C(N)=O)C(C)C (stereo partly specified) (H-[Cha]W[X1]VVF-NH2) | 6.35 | –
31 | CN1CCN(C(=O)N[C@@H](Cc2ccccc2)C(=O)N[C@@H](CCc2ccccc2)C(=O)c2cc(-c3ccccc3)on2)CC1 | 6.64 | –
32 | COc1ncccc1Nc1nc(C#N)nc(NC2CCCCC2)n1 | 5.96 | –
33 | Cc1cc(C)cc(S(=O)(=O)n2c(SCC(=O)Nc3ccccc3)nc3ccccc32)c1 | 6.17 | pKi [2]: 6.64
34 | C[C@@H]1CCC2(C(=O)O)CC[C@]3(C)C(=CCC4[C@@]5(C)CCC(=O)C(C)(C)C5CC[C@]43C)C2[C@H]1C (stereo partly specified) | 5.42 | pKi [2]: 5.90
35 | CC(C)C[C@@H](NC(=O)OC(C)(C)C)C(=O)N1CCC[C@@H]1C(=O)N1[C@H](C(=O)OCc2ccccc2)[C@H]1C(=O)OCc1ccccc1 | – | pIC50 (Leishmania major): 4.45
36 | O=C1CC(c2ccc(O)cc2)Oc2cc(O)c(-c3c(O)cc(O)c4c(=O)cc(-c5ccc(O)cc5)oc34)c(O)c21 (stereo unspecified) | 6.37 | –
37 | O=C(N[C@@H](Cc1ccccc1)C(=O)c1cc(-c2ccccc2)on1)[C@H](Cc1ccccc1)NC(=O)N1CCOCC1 | 7.00 | –
